pIC50: −log10 of the molar value. “And” between values parts separate entries of the source, which are not always exact repeats. Identical values can stand only once. Like-named read-outs stand apart in the source and are kept apart here.

The pIC50 is the IC50 on a negative log10 scale, so that one unit is a factor of ten.

Data set [1] has as its system BACE cleavage of APP. Kind of data set: pilot study in AD model mice. To be noted: orally 30 mg/kg/day for 10 days. Format: in vivo.
The nature of data set [2]: pharmacokinetic study in rats. Format: in vivo. To be noted: wildtype Sprague-Dawley rats, 30 mg/kg orally, at 2 hours.
Data set [3] deals with Cathepsin D (CatD) (Homo sapiens (Human), UniProt P07339). Kind of data set: Cathepsin-D assay. Format: biochemical. Here is the method:
For the assay, 4 μL of assay buffer was added to each well, followed by 2 μL of Cathepsin D (CatD) diluted in assay buffer to 5 ng/μL. Then, 2 μL of inhibitor, prepared to get a testing concentration of 20 μM, were added to appropriated wells and incubated for 30 minutes at room temperature. Afterwards, 2 μL of CatD substrate, diluted to 50 μM in assay buffer, were added to each well, after which the signal generated was read every 30 minutes at 25° C. for 1 hr. Signals shown in FIG. 6 are representative of readings at 1 hr.

The subject of data set [4] is p-selectin glycoprotein ligand 1 (PSGL-1) (Homo sapiens (Human)). Nature of the data set: PSGL1 cleavage assay in PSGL1-BACE1 co-transfected 293T cells. It is filed as cell-based. Here is the method:
(§1) 293T cells were plated in 96-well plates at 40,000 cells/well, incubated overnight at 37° C. and 5% CO2. Next day, cells were co-transfected with NRG1-BACE1 plasmids or PSGL1-BACE1 plasmids using Lipofectamine2000, as describe previously. Six hours after transfection, the reagents were removed and media containing the different compounds at various concentrations were loaded into each well.
(§2) After overnight incubation with the compounds, 20 μL of media were removed and added to a new plate. Then, 200 μl of reaction solution (0.1 M glycine, pH 10.4, 1 mM MgCl2, 1 mM ZnCl2 containing 1 mg/ml 4-nitrophenyl phosphate disodium salt hexahydrate, Sigma S0942) were loaded into each well of the plate. The absorbance was read at 405 nm for 60 min in 30 min intervals in a SpectraMax M5.
(§3) These compounds were diluted to 10 mM in DMSO. This solution was diluted to 20, 10, 2, 1, 0.2 and 0.02 μM in DMEM high Glucose containing 10% of FBS and 1% of Penicillin-Streptomycin containing 0.2% DMSO.

The subject of data set [5] is BACE cleavage of APP. Kind of data set: pharmacodynamic pilot study in rats (CSF and brain tissue). It is filed as in vivo, Sprague-Dawley rats. Conditions: 30 mg/kg orally.
Data set [6] in a line: PAMPA. Format: in vitro ADME. In general terms: The PAMPA barrier holds no transporters, so it reflects passive diffusion.
Data set [7] deals with BACE-1 (Homo sapiens (Human), UniProt P56817). Nature of the data set: cell-free BACE enzyme assay with P5-P5′ substrate. Format: biochemical. Here is the method: For the assay, 4 μL of assay buffer was added to each well, followed by 2 μL of BACE-1 diluted in assay buffer to 7.5 ng/μL. Then, 2 μL of inhibitor, at concentrations along an 11 pt. two-fold dilution series starting at 0.5 μM, were added to appropriate wells and incubated for 30 minutes at room temperature. Afterwards, 2 μL of P5-P5′ BACE-1 substrate, diluted to 50 μM in assay buffer, were added to each well, after which the signal generated was read every 30 minutes at 25° C. for 2 hr.

For data set [8], the system named is CHO-7W cells (stably transfected with human amyloid precursor protein wildtype). Nature of the data set: CHO-7W cell assay (AlphaLISA of media). Format: cell-based, Chinese hamster. To be noted: treatment for 24 hours. Here is the method: For the assay, 50 μL of CHO-7W cells were added to each well at 4×10^5 cells/mL. Then, 50 μL of inhibitor, prepared for tested concentrations, were added to appropriated wells and incubated for 24 hours at 37° C. Afterwards, media from each well is collected and assayed using an AlphaLISA assay for respective analytes.

Data set [9] concerns neuregulin 1 (NRG-1) (Homo sapiens (Human)). Nature of the data set: NRG1 cleavage assay in NRG1-BACE1 co-transfected 293T cells. Format: cell-based. Here is the method: as §1, §2, §3
Data set [10] in a line: pharmacokinetics in mice. Format: in vivo.

Chain of BACE-1 (P56817 46-501): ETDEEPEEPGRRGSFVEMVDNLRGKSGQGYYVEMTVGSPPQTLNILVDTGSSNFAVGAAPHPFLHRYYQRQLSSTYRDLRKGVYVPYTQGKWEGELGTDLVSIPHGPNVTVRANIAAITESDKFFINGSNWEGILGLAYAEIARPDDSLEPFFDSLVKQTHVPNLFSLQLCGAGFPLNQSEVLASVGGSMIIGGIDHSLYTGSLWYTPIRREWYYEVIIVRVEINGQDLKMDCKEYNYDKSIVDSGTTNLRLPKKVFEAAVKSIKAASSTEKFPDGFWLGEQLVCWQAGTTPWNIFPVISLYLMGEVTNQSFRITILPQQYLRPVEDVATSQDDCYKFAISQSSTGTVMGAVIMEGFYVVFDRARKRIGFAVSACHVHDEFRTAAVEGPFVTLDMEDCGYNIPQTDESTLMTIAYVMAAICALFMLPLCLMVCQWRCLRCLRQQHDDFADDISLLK
Chain of Cathepsin D (CatD) (P07339 65-412, species assumed): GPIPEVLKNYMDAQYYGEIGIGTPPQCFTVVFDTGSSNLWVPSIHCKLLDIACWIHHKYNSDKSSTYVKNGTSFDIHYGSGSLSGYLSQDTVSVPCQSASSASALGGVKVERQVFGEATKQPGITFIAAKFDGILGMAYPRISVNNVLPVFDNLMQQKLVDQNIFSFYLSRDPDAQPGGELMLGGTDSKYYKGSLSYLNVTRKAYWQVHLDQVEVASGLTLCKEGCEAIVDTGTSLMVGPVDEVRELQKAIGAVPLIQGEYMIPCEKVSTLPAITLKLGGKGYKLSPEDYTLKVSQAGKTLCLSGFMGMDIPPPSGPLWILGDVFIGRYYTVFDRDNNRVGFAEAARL

With `Cc1cc(C2(c3cccc(-c4cncnc4)c3)N=C(N)N(C)C2=O)ccc1OC(F)F` (racemic) [FAH-65, 2-amino-5-(4-(difluoromethoxy)-3-methylphenyl)-3-methyl-5-(3-(pyrimidin-5-yl)phenyl)-3,5-dihydro-4H-imidazol-4-one], in data set [1], the “BACE/γ-secretase product Aβ” value is “trend to decrease” and the “decrease of APP-derived BACE cleavage product βCTF (beta C-terminal fragment)” value is “significantly”. Moreover, the brain peak in [2] was 182 ng/g. For the same compound, the negative-log IC50 (pIC50) in data set [3] was 4.33. The “inhibitory activity in cleavage of p-selectin glycoprotein ligand 1 (PSGL-1)” value in [4] is reported as “little cleavage”. In [5] (at 3 and 6 hours, vs untreated controls), the “sAPPβ in CSF” value is listed as “reduced”. Also, in [5] (compared to control, decrease persisted to 24 hours), the Aβ1-40 levels entry is on record as “decreased”. Also, the PAMPA in data set [6] was 0.44 and 0.45 and 0.46 and 0.47 and 0.52 and 0.48 and 0.49. The same compound showed a pIC50 in data set [7] (cell-free BACE assay) of 7.66. In addition, the pIC50 in data set [7] (cell-free, several replicate values per cell, some flagged 's' (flag not defined), read-out: BACE1 IC50) is 8.00 to 8.30 and 7.72 and 7.95 and 7.80 and 7.96 and 7.82 and 7.62 and 7.85. Further, in [8], the “amyloid-beta (Aβ)” value was “significantly decreased” and the “soluble amyloid precursor protein beta (sAPPβ)” value is “significantly decreased”. The “inhibitory activity in cleavage of neuregulin 1 (NRG-1)” value in data set [9] is given as “little cleavage”. The brain penetrance result in [10] is on record as “brain-penetrant”. This compound had a peak in brain in [10] (oral delivery at 30 mg/kg, one hour post-dosing) of 74 ng/g.

These data come from patent US20210101879A1, “AMYLOID PROTEIN-SELECTIVE BACE INHIBITORS (ASBIs) FOR ALZHEIMER?S DISEASE” (The Regents of the University of California, priority 2018, published 2021).
